For the test, the target named is T1, Calmodulin-domain protein kinase 1 (Toxoplasma gondii, UniProt Q9BJF5).
T1 sequence (Q9BJF5 whole entry): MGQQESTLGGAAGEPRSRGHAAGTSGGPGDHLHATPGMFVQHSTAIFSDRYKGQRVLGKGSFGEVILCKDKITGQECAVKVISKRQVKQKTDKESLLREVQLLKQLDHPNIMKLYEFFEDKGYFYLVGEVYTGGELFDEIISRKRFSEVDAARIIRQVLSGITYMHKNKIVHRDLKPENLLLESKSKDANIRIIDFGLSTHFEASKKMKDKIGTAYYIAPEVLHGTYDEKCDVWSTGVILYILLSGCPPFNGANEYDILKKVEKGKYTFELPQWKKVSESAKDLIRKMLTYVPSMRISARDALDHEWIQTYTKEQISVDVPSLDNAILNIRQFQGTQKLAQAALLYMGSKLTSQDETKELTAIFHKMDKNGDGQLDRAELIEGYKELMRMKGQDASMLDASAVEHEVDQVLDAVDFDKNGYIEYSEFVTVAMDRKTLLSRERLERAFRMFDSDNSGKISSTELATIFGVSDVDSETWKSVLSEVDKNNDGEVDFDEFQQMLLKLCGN
Kind of test: Inhibition Assay. How it is done:
Certain of the compounds prepared as described above were assayed to determine their IC50 for inhibition of T. gondii CDPK1 (tgCDPK1). At least three independent replicates of the assay were conducted for each compound tested.

As a reminder, the IC50 is the concentration at which inhibition is half-maximal. High values mean a need for much substance, low ones inhibition by little substance. Consider `N#Cc1cccc(Oc2nn([C@H]3C[C@H](F)C3)c3ncnc(N)c23)c1` [US11518761, Example 173], for which the IC50 worked out at 49.8 nM.

In turn, `N#Cc1cccc(Oc2nn([C@H]3C[C@H](O)C3)c3ncnc(N)c23)c1` [US11518761, Example 178] displayed an IC50 of 79.6 nM.
